Ends that are not written are not given here.
Columns and labels:
[1] = test system: HeLa cells; assay: dTAT-induced cytosolic release of DEAC-K9 trapped inside endosomes; assay type: cell-based; conditions: 5 μM DEAC-K9 1 h, wash, 5 μM dTAT 1 h
Procedure: FIGS. 8A-8C illustrate that dTAT mediates endosomal escape. (FIG. 8A) Effect of endocytic inhibitors on the cellular distribution of dTAT. HeLa cells were pre-treated with 50 μM amiloride or 200 nM bafilomycin for 30 and 20 min respectively, washed, and incubated with 5 μM dTAT and inhibitor. […] Scale bar, 10 μm. […] A schematic illustration of the experimental steps is shown (top). First, cells were incubated with 5 μM DEAC-K9 for 1 h and washed. Inverted monochrome images show a fluorescence punctuate distribution after incubation with DEAC-K9 alone. The same cells were then incubated with 5 μM dTAT for 1 h. Images show a redistribution of DEAC-K9 to the cytosol and nucleus (inhibited by bafilomycin). Scale bars, 10 μm. (FIG. 8C) The endosomolytic activity of dTAT is highly efficient. HeLa cells expressing SNAPH2B were incubated with 5 μM dTAT and 5 μM SNAP-Surface® 488. Fluorescence images show accumulation of SNAP-Surface® 488 in the nucleus. […] Small panels show cytosolic and nuclear fluorescence of TMR. Scale bars, 10 μm.
To test whether endosomal escape is involved in delivery of dTAT, the effects of amiloride, a macropinocytosis inhibitor, and bafilomycin, an inhibitor of endosomal acidification, were assessed. […] Cells were then washed and incubated with dTAT (FIG. 8B). […] This redistribution was however inhibited by bafilomycin.

[2] = test system: NIH 3T3 cells; assay: HoxB4 and TAT-HoxB4 delivery, luciferase reporter under a HoxB4-inducible promoter; assay type: cell-based, murine; conditions: dTAT 3 μM alone
Procedure: Next, the delivery of the therapeutically important transcription factor HoxB4 was tested. HoxB4 can penetrate cells by itself or when fused to the […] TAT and activate transcription. […] NIH 3T3 cells were transfected with a vector containing the luciferase gene under a HoxB4-inducible promoter and with a β-galactosidase reporter as internal control. Cells were incubated with HoxB4 or TAT-HoxB4, in the absence or presence of dTAT for 1.5 h. Cells were then lysed and luciferase expression was assessed by measuring the luminescence of cell lysates normalized to β-galactosidase activity. […] These values are consistent with previously published reports. In contrast, addition of dTAT (3 μM), led to a luciferase induction of 53.1 and 307.4, respectively. The luciferase induction was therefore increased 24-fold in the presence of dTAT for HoxB4 and 61-fold for TAT-HoxB4. […] While increasing the transcriptional output of HoxB4 is valuable, high levels of HoxB4 expression can result in anti-proliferative and transforming effects. Precisely controlling the level and activity of HoxB4 inside cells is therefore important to achieve a desirable biological outcome. Because dTAT appears to act independently of the molecules used for co-incubation in our assays, it was hypothesized that it might be possible to titrate the amount of protein that penetrates cells by varying the protein concentration in the media while keeping dTAT concentration constant. Under this scenario, the efficiency of endosomal escape should remain unaffected but the amount of material released from endosomes should change.
The murine fibroblast cell line (NIH-3T3, stably transfected with the E2A-PBX vector), the luciferase reporter vector, pML (5×HOX/PBX; contains a promoter with binding sites for HOXB4 and PBX) and the β-gal internal control vector used in the following studies were kindly provided by P. Zandstra (University of Toronto, Ontario, Canada). The cells were initially cultured in 100 mm dishes at 37° C. with 5% CO2 in DMEM supplemented with 10% FBS. For experimental purposes, however, cells were seeded in 24-well plates at a density of 5-6×10^4 cells/well for 24 hours. Subsequently, cells were co-transfected with 0.8 μg/mL of pML (5×HOX/PBX) and of the β-gal internal control vector using Lipofectamine 2000. Twelve hours post-transfection, cells were washed and incubated with TAT-HoxB4 or HoxB4 (both at 200 nM, unless otherwise noted; see below) with or without TAT or dTAT in nrL-15 for 90 min. Some cells were also incubated with TAT-mCherry (200 nM) with and without the peptides. After incubation, all cells were washed with PBS and lysed according to the manufacturer's protocol for the reporter lysis buffer (RLB) (Promega). For titration experiments, the same protocol was followed, with the exception that HoxB4 concentrations were varied (25, 50, 100, 150 and 200 nM). In order to quantitate the luciferase reporter activity, 100 μL of luciferase assay reagent (Promega) was added to 20 μL of cell lysate and bioluminescence was immediately measured using a SpectraMaxL luminometer (Sunnyvale, Calif.). […] Absorbance was then measured at 450 nm using the plate reader. Since the absorption spectrum of the chromophore (TMR) conjugated to the peptide used in this study overlaps with that of β-gal, 20 μL of cell lysate containing the peptide was also diluted with 180 μL of the lysis buffer and absorbance values obtained at 450 nm were subtracted from that of the β-gal absorbance values. […]

[3] = test system: HeLa cells; assay: Quantitative determination of peptide uptake inside cells (bulk fluorescence of cell lysates); assay type: cell-based; conditions: 1-10 μM, 1 h
Procedure: HeLa cells were seeded in a 48 well dish, grown and washed as described above. For the peptide uptake experiment, each well was incubated for 1 h with varying concentration of acTAT, TAT or dTAT (range: 5-25 μM peptide concentration). For the titration experiment, cells were incubated with dTAT (5 μM) and varying concentrations of DEAC-K9 (range: 1-20 μM). Cells were then washed with PBS and nrL-15 and imaged. Multiple images for each condition were obtained and processed. To lyse cells, nrL-15 was removed from the wells and a total of 100 μL of HeLa cell lysis Buffer (50 mM Tris pH 7.5, 2 mM EDTA, 2 mM DTT, 0.1% Triton X-100) was incubated with cells for 5 min. The cells were lysed and scraped off the dish and pipetted into a 1.5 mL microcentrifuge tube. The cell lysates were centrifuged at 13.2K RPM for 25 min. […] The fluorescence from the cell lysates were measured using a plate reader equipped with a fluorescence module (Ex==525, Em=580-640 nm) (GloMax®-Multi+ Detection System, Promega, Fitchburg, Wis.). For the titration experiment, 80 μL of supernatant was diluted to a total volume of 100 μL and the bulk fluorescence was measured using a SLM-8000C fluorometer (Ex=435 nm, Em=465-475 nm) (SLM Instruments, Bath, UK). The fluorescence emission was averaged and recorded. […] The absorbance at 600 nm was measured using the plate reader. […]

## (CK(TMR)TAT)2 (CK(TMR)RKKRRQRRRG; also: dimer) [dTAT, dimer of two CK(TMR)-TAT monomers linked via a disulfide bond between the N-terminal cysteine residues]
[1]
  distribution of DEAC-K9 fluorescence after subsequent addition of dTAT: redistribution of the DEAC signal throughout the cytosol and nucleus
[2]
  induction of luciferase: Neither dTAT alone nor dTAT incubated with TAT-mCherry led to the induction of luciferase
[3]
  overall amount of peptide inside cells (cytosol+endosomes), bulk fluorescence of lysates: almost linearly correlated to the concentration of dTAT administered extracellularly
